Values joined by “and” are separate entries in the source; they are usually repeats but may differ in a detail not shown here. Identical values can stand only once. Ends that are not written are not given here. Peptide text beside a SMILES is read from it.
Key:
hPAR2 [1] = target: T1, hPAR2 (Homo sapiens, UniProt P55085); test: IP1 assay, agonist mode, 1321N1-hPAR2 cells; format: cell-based
T1 sequence (P55085 26-397): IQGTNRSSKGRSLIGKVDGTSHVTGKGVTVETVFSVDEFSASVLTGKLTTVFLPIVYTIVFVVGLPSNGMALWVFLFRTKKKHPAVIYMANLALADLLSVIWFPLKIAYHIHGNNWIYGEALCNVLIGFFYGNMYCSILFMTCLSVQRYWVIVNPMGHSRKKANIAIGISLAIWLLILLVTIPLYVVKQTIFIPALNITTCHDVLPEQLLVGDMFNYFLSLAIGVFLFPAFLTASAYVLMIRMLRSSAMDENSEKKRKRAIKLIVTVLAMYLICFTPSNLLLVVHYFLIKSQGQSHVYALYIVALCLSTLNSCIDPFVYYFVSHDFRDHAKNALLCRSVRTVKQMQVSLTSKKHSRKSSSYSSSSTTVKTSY

hPAR2 [2] = target: T1, hPAR2; test: Radiolabelled competition binding assay against [^3H]-GB110 on HEKexpi293F membranes; parameters: expressed in transfected cells
Description: The reaction was then filtered through 0.5% PEI-coated filter plates using a BiomekFX. The filter plate was then dried for 1 h at 50 °C. Scintillation fluid was added to each well, before reading the plate in a Microbeta reader.
(§1) Binding data were analysed using the One site – Fit Ki model in GraphPad Prism 8 (GraphPad Software) to determine binding affinity. Pharmacology in vitro potency data was analysed with a 4-parameter logistic fit using the equation y = Bottom + (Top − Bottom)/[…] where y is the response, x is the 10-logarithm of the drug concentration, Bottom is no response and Top is full response in GraphPad Prism 8 or Genedata Screener (Genedata). pEC50 and pIC50 data are presented as mean ± standard error of the mean (s.e.m.) derived from the number of independent experiments stated. Schild slope analysis was calculated using Graphpad Prism 8 Gaddum/Schild EC50 global fitting (shared model parameters between all data sets) competitive model. The most rigorous method for quantifying agonist-antagonist interactions is to globally fit the Gaddum/Shild model to all agonist dose–response curves. Schild slope quantifies the shifts in agonist response in the presence of antagonist, a Schild slope of 1 indicates the antagonist is competitive and extra-sum-of-squares F-test (p < 0.05) was used to compare the calculated Schild slope against a hypothetical Schild slope of 1. […] The relative activity was calculated using (EmaxEC50’)/(Emax’EC50) with the Hill slope help constant at 1. EC50’ and Emax’ denote the EC50 and Emax in the absence of allosteric modulator, while EC50 and Emax denote those measured in the presence of allosteric modulator. When the Hill slope = 1, the relative activity plot approaches an asymptote corresponding to the estimate of the γ value.

hPAR2 [3] = target: T1, hPAR2; test: Ca^2+ flux assay, agonist mode, 1321N1-hPAR2 cells; format: cell-based; details: for Ca2+ response (Fig 2c), individual replicate values: hPAR2
Description: Cells were loaded with Fluo-8 NW calcium dye (AAT Bioquest) for 30 min at 37 °C before compounds in Hank’s balanced salt solution (HBSS, ThermoFisher Scientific) with 20 mM HEPES (ThermoFisher Scientific), 0.1% bovine serum albumin (BSA, Sigma) and 0.5% DMSO were added and simultaneously evaluated for changes in intracellular [Ca^2+] using FLIPR TETRA (Molecular Devices) to detect agonism. For each concentration, the difference between the maximum peak Ca^2+ response and baseline response is reported. […] Antagonism experiments were also carried out on 1321N1-PAR2[WT], 1321N1-PAR2[F154A], and 1321N1-PAR2[G157C] as described. Experiments with trypsin in 1321N1-hPAR2 cells were performed in the presence of 1 µM Vorapaxar (Chemtronica) to remove any interference of PAR1 activity. […] Antagonism experiments for CHO-hPAR2 and HT-29 cells were performed in 96-well plates at 30,000 cells/well. Cells were loaded with Fluo-3 AM calcium dye (Sigma-Aldrich) for 60 min at 37 °C in HBSS with 1% FBS, 0.2% pluronic acid, 20 mM HEPES and 2.5 mM probenecid prior to the addition of antagonist. The antagonist was pre-incubated for 60 min at 37 °C followed by the addition of bovine trypsin (30 nM) at EC80. Intracellular [Ca^2+] flux was measured using FLIPR TETRA (Molecular Devices) and the difference between the maximum peak Ca^2+ response and baseline response is reported.
as §1, with “The most rigorous method for quantifying agonist-antagonist interactions is to globally fit the Gaddum/Shild model to all agonist dose–response curves.” left out

hPAR2 [4] = target: T1, hPAR2; test: β-arrestin-2 recruitment, agonist mode, U2OS-hPAR2 cells; format: cell-based
hPAR2 [5] = target: T1, hPAR2; test: pERK1/2 assay, agonist mode, U2OS-hPAR2 cells; format: cell-based
[6] = target: human PAR2 on Flp-In CHO-hPAR2 cells (human) (UniProt P55085); test: time-resolved fluorescence competition binding on cells (Eu-tagged ligand, DELFIA); CHO-hPAR2 cells in 384-well plates, blocked with 2% BSA; Eu-tagged-2f-LIGRLO(dtpa)-NH2 300 nM together with competitor for 15 min; washed; DELFIA Enhancement Solution
[7] = target: human protease-activated receptor-2 (PAR2) in membranes of HEKexpi293F cells (human, UniProt P55085 26-397); test: radioligand binding; competition against [3H]-GB110 (25 nM) on membranes (30 µg protein per well) of HEKexpi293F cells expressing human PAR2; 2 h at room temperature; filtration; One site - Fit Ki model; details: one partner purified

## CC[C@H](C)[C@H](NC(=O)[C@H](CC(C)C)NC(=O)[C@@H](N)CO)C(=O)NCC(=O)N[C@@H](CCCCN)C(=O)N[C@H](C(N)=O)C(C)C [SLIGKV-NH2, reference compound] (H-SLIGKV-NH2)
hPAR2 [1]
  EC50: 25.1 µM
hPAR2 [2]
  Ki: 468 nM
hPAR2 [2]; 2 h, read-out: specific binding of [^3H]-GB110, Fig 2b source data
  remaining binding at […]: 100% and 94.6%
hPAR2 [3]
  EC50: 1260 nM
hPAR2 [3]; [compound],M -3.69897
  Ca2+ response (Fig 2c), individual replicate values: 103.767 and 118.778 and 97.8658 and 87.8393
hPAR2 [3]; [compound],M -4.17609
  Ca2+ response (Fig 2c), individual replicate values: 56.3274 and 105.715 and 98.496 and 100.501
hPAR2 [3]; [compound],M -4.65321
  Ca2+ response (Fig 2c), individual replicate values: 93.626 and 84.0006 and 100.043 and 97.9804
hPAR2 [3]; [compound],M -5.13033
  Ca2+ response (Fig 2c), individual replicate values: 68.0728 and 71.1667 and 73.1719 and 72.2553
hPAR2 [3]; [compound],M -5.60746
  Ca2+ response (Fig 2c), individual replicate values: 41.6601 and 53.119 and 63.0309 and 60.338
hPAR2 [3]; [compound],M -6.08458
  Ca2+ response (Fig 2c), individual replicate values: 28.1959 and 44.9832 and 36.0453 and 35.9307
hPAR2 [3]; [compound],M -6.5617
  Ca2+ response (Fig 2c), individual replicate values: 11.2941 and 18.1695 and 18.1121 and 22.4665
hPAR2 [3]; [compound],M -7.03882
  Ca2+ response (Fig 2c), individual replicate values: 4.705 and 12.8411 and -0.8522 and 3.559
hPAR2 [3]; [compound],M -7.51594
  Ca2+ response (Fig 2c), individual replicate values: -1.139 and 5.679 and 1.6687 and -1.54
hPAR2 [3]; [compound],M -7.99306
  Ca2+ response (Fig 2c), individual replicate values: -2.17 and 3.044 and 0.4082 and -4.863
hPAR2 [4]
  EC50: 12.6 µM
hPAR2 [4]; [compound],M -4.04576
  agonist response (Fig 2f), individual replicate values: 97.3808 and 92.2809 and 86.7862 and 73.31 and 95.9148 and 84.3134
hPAR2 [4]; [compound],M -4.52288
  agonist response (Fig 2f), individual replicate values: 92.9579 and 90.0884 and 64.3276 and 56.5062 and 77.8703 and 74.4284
hPAR2 [4]; [compound],M -5
  agonist response (Fig 2f), individual replicate values: 55.0604 and 54.5545 and 55.8646 and 38.6159 and 58.5041 and 56.712
hPAR2 [4]; [compound],M -5.47712
  agonist response (Fig 2f), individual replicate values: 26.8191 and 21.9568 and 32.045 and 20.5609 and 38.941 and 38.2123
hPAR2 [4]; [compound],M -5.95424
  agonist response (Fig 2f), individual replicate values: 3.59 and 16.887 and 24.5009 and 9.51 and 14.8748 and 18.3177
hPAR2 [4]; [compound],M -6.43136
  agonist response (Fig 2f), individual replicate values: -3.351 and 12.8282 and 7.2581 and 5.779 and 4.6 and 10.8974
hPAR2 [4]; [compound],M -6.90849
  agonist response (Fig 2f), individual replicate values: 4.102 and 7.728 and 1.445 and -0.0221 and 3.388 and 8.399
hPAR2 [4]; [compound],M -7.38561
  agonist response (Fig 2f), individual replicate values: 1.29 and 11.1269 and 3.313 and 3.3558 and 1.549 and 0.5881
hPAR2 [4]; [compound],M -7.86273
  agonist response (Fig 2f), individual replicate values: -1.101 and 4.782 and 4.705 and 0.01875 and -2.103 and 4.2334
hPAR2 [4]; [compound],M -8.33985
  agonist response (Fig 2f), individual replicate values: -5.551 and 2.218 and -0.6869 and -0.9848 and 0.2659 and 2.337
hPAR2 [5]
  EC50: 10 µM
hPAR2 [5]; [compound],M -4.04576
  agonist response (Fig 2e), individual replicate values: 99.6308 and 91.4672 and 59.9255 and 93.3534 and 82.1422 and 106.727 and 95.3302 and 107.361
hPAR2 [5]; [compound],M -4.52288
  agonist response (Fig 2e), individual replicate values: 97.6379 and 75.0545 and 42.279 and 78.3436 and 72.4641 and 77.8082 and 83.5277 and 91.4836
hPAR2 [5]; [compound],M -5
  agonist response (Fig 2e), individual replicate values: 31.7126 and 38.7964 and 29.9003 and 52.5593 and 35.7079 and 56.5471 and 40.6895 and 78.4826
hPAR2 [5]; [compound],M -5.47712
  agonist response (Fig 2e), individual replicate values: -6.206 and 24.6437 and 9.489 and 50.4555 and 3.733 and 21.3761 and 7.93 and 32.2657
hPAR2 [5]; [compound],M -5.95424
  agonist response (Fig 2e), individual replicate values: -12.6824 and 18.9444 and 7.502 and 22.8061 and -1.381 and 9.052 and -3.256 and 12.5644
hPAR2 [5]; [compound],M -6.43136
  agonist response (Fig 2e), individual replicate values: -23.75 and 16.3682 and -5.093 and 16.2671 and -4.436 and 12.7209 and -3.872 and 14.813
hPAR2 [5]; [compound],M -6.90849
  agonist response (Fig 2e), individual replicate values: 15.5205 and 19.768 and 3.339 and 15.6565 and 2.966 and 12.1455 and -0.4138 and 11.0577
hPAR2 [5]; [compound],M -7.38561
  agonist response (Fig 2e), individual replicate values: -7.931 and 10.0627 and -5.815 and 6.181 and -11.0844 and 9.039 and -0.4366 and 14.6989
hPAR2 [5]; [compound],M -7.86273
  agonist response (Fig 2e), individual replicate values: -16.2411 and 11.2751 and -1.735 and 6.359 and -8.732 and 10.0488 and 1.766 and 13.489
hPAR2 [5]; [compound],M -8.33985
  agonist response (Fig 2e), individual replicate values: -5.583 and 13.904 and -4.7322 and 9.728 and -8.195 and 13.5647 and -0.3681 and 7.371

## 2f-LIGRLO-NH2 (peptide)
[6]
  pKA (equilibrium dissociation constant of the orthosteric ligand): 6.1 pKA

B1: SLIGKV-NH2 (peptide)
peptide: SLIGKV-NH2
notes: also called human tethered ligand peptide; source: synthetic peptide, custom synthesised by ThermoFisher Scientific
[7]
  pKi: 6.33 pKi

Reference: paper PMC7747594, “Protease-activated receptor-2 ligands reveal orthosteric and allosteric mechanisms of receptor inhibition” (Communications Biology, 2020)
